Results from the NIST ThermoML archive (doi:10.1021/je060271a).
Values joined by “and” are separate entries in the source; they are usually repeats but may differ in a detail not shown here. Identical values can stand only once.

Settings: 343.15 K, Liquid, Vibrating tube method

CCCCCCC(=O)OCC(COC(=O)CCCCCC)(COC(=O)CCCCCC)COC(=O)CCCCCC [pentaerythritol tetraheptanoate]
Settings	mass density
13341 kPa	950.4 kg/m3
13372 kPa	950.4 kg/m3
13408 kPa	950.3 kg/m3
13431 kPa	950.4 kg/m3
13453 kPa	950.5 kg/m3
13478 kPa	950.4 kg/m3
13499 kPa	950.4 kg/m3
13521 kPa	950.4 kg/m3
13546 kPa	950.5 kg/m3
13567 kPa	950.5 kg/m3
13589 kPa	950.5 kg/m3
13615 kPa	950.5 kg/m3
13637 kPa	950.5 kg/m3
13658 kPa	950.6 kg/m3
13661 kPa	950.5 kg/m3
13675 kPa	950.6 kg/m3
13680 kPa	950.6 kg/m3
13707 kPa	950.6 kg/m3
13729 kPa	950.6 kg/m3
13751 kPa	950.7 kg/m3
13779 kPa	950.6 kg/m3
13801 kPa	950.7 kg/m3
13824 kPa	950.7 kg/m3
13831 kPa	950.7 kg/m3
13845 kPa	950.8 kg/m3
13850 kPa	950.6 kg/m3
13858 kPa	950.8 kg/m3
13872 kPa	950.8 kg/m3
13895 kPa	950.8 kg/m3
13922 kPa	950.8 kg/m3
13944 kPa	950.7 kg/m3
13968 kPa	950.8 kg/m3
13995 kPa	950.8 kg/m3
14018 kPa	950.9 kg/m3
14041 kPa	950.8 kg/m3
14069 kPa	950.8 kg/m3
14093 kPa	950.9 kg/m3
14116 kPa	950.9 kg/m3
14140 kPa	950.9 kg/m3
14168 kPa	950.9 kg/m3
14191 kPa	950.9 kg/m3
14215 kPa	951 kg/m3
14244 kPa	951 kg/m3
14267 kPa	950.8 kg/m3
14296 kPa	951 kg/m3
14320 kPa	951.1 kg/m3
14344 kPa	951.1 kg/m3
14368 kPa	951 kg/m3
14397 kPa	951.1 kg/m3
14398 kPa	951.2 kg/m3
14410 kPa	951.1 kg/m3
14423 kPa	951 kg/m3
14427 kPa	951.1 kg/m3
14440 kPa	951.1 kg/m3
14447 kPa	951.2 kg/m3
14454 kPa	951 kg/m3
14468 kPa	951.1 kg/m3
14477 kPa	951.2 kg/m3
14482 kPa	951.2 kg/m3
14495 kPa	951 kg/m3
14502 kPa	951.1 kg/m3
14512 kPa	951.2 kg/m3
14526 kPa	951.1 kg/m3
14556 kPa	951 kg/m3
14581 kPa	951.2 kg/m3
14606 kPa	951.1 kg/m3
14632 kPa	951.3 kg/m3
14662 kPa	951.1 kg/m3
14688 kPa	951.2 kg/m3
14714 kPa	951.3 kg/m3
14744 kPa	951.3 kg/m3
14771 kPa	951.3 kg/m3
14797 kPa	951.4 kg/m3
14823 kPa	951.4 kg/m3
14855 kPa	951.2 kg/m3
14880 kPa	951.4 kg/m3
14907 kPa	951.3 kg/m3
14939 kPa	951.4 kg/m3
14965 kPa	951.4 kg/m3
14992 kPa	951.5 kg/m3
15024 kPa	951.5 kg/m3
15051 kPa	951.6 kg/m3
15078 kPa	951.7 kg/m3
15112 kPa	951.6 kg/m3
15135 kPa	951.6 kg/m3
15168 kPa	951.5 kg/m3
15196 kPa	951.6 kg/m3
15230 kPa	951.7 kg/m3
15257 kPa	951.6 kg/m3
15284 kPa	951.8 kg/m3
15310 kPa	951.7 kg/m3
15337 kPa	951.7 kg/m3
15354 kPa	951.7 kg/m3
15378 kPa	951.7 kg/m3
15402 kPa	951.8 kg/m3
15423 kPa	951.8 kg/m3
15449 kPa	951.7 kg/m3
15466 kPa	951.8 kg/m3
15491 kPa	951.8 kg/m3
15511 kPa	951.8 kg/m3
15531 kPa	951.9 kg/m3
15556 kPa	951.9 kg/m3
15577 kPa	952 kg/m3
15598 kPa	951.9 kg/m3
15623 kPa	952.1 kg/m3
15643 kPa	951.9 kg/m3
15664 kPa	951.9 kg/m3
15689 kPa	951.9 kg/m3
15710 kPa	951.9 kg/m3
15732 kPa	951.9 kg/m3
15753 kPa	952.1 kg/m3
15778 kPa	952.1 kg/m3
15800 kPa	952 kg/m3
15817 kPa	952.1 kg/m3
15847 kPa	952.1 kg/m3
15868 kPa	952.2 kg/m3
15890 kPa	952.1 kg/m3
15916 kPa	952.2 kg/m3
15938 kPa	952.1 kg/m3
15964 kPa	952.1 kg/m3
15985 kPa	952.1 kg/m3
16008 kPa	952.2 kg/m3
16034 kPa	952.2 kg/m3
16056 kPa	952.2 kg/m3
16079 kPa	952.2 kg/m3
16101 kPa	952.2 kg/m3
16128 kPa	952.2 kg/m3
16151 kPa	952.3 kg/m3
16174 kPa	952.3 kg/m3
16200 kPa	952.4 kg/m3
16223 kPa	952.3 kg/m3
16246 kPa	952.4 kg/m3
16269 kPa	952.4 kg/m3
16297 kPa	952.4 kg/m3
16320 kPa	952.5 kg/m3
16344 kPa	952.5 kg/m3
16367 kPa	952.5 kg/m3
16395 kPa	952.6 kg/m3
16418 kPa	952.5 kg/m3
16446 kPa	952.4 kg/m3
16469 kPa	952.5 kg/m3
16493 kPa	952.7 kg/m3
16516 kPa	952.5 kg/m3
16545 kPa	952.7 kg/m3
16569 kPa	952.6 kg/m3
16588 kPa	952.6 kg/m3
16616 kPa	952.6 kg/m3
16640 kPa	952.6 kg/m3
16669 kPa	952.7 kg/m3
16698 kPa	952.5 kg/m3
16723 kPa	952.7 kg/m3
16747 kPa	952.8 kg/m3
16771 kPa	952.8 kg/m3
16800 kPa	952.8 kg/m3
16825 kPa	952.8 kg/m3
16854 kPa	952.8 kg/m3
16879 kPa	952.8 kg/m3
16882 kPa	952.8 kg/m3
16904 kPa	953 kg/m3
16933 kPa	952.8 kg/m3
16958 kPa	952.8 kg/m3
16983 kPa	952.9 kg/m3
17013 kPa	952.9 kg/m3
17038 kPa	952.9 kg/m3
17064 kPa	953.1 kg/m3
17089 kPa	952.9 kg/m3
17120 kPa	952.9 kg/m3
17145 kPa	953 kg/m3
17176 kPa	952.9 kg/m3
17202 kPa	952.9 kg/m3
17228 kPa	952.9 kg/m3
17254 kPa	953.1 kg/m3
17285 kPa	953 kg/m3
17312 kPa	953.1 kg/m3
17340 kPa	953 kg/m3
17368 kPa	953 kg/m3
17394 kPa	953.2 kg/m3
17426 kPa	953.1 kg/m3
17453 kPa	953.1 kg/m3
17463 kPa	953.2 kg/m3
17480 kPa	953.2 kg/m3
17483 kPa	953.2 kg/m3
17507 kPa	953.3 kg/m3
17512 kPa	953.2 kg/m3
17528 kPa	953.2 kg/m3
17538 kPa	953.2 kg/m3
17548 kPa	953.1 kg/m3
17566 kPa	953.2 kg/m3
17572 kPa	953.3 kg/m3
17598 kPa	953.3 kg/m3
17625 kPa	953.3 kg/m3
17652 kPa	953.3 kg/m3
17686 kPa	953.1 kg/m3
17709 kPa	953.4 kg/m3
17742 kPa	953.3 kg/m3
17770 kPa	953.4 kg/m3
17798 kPa	953.4 kg/m3
17831 kPa	953.5 kg/m3
17859 kPa	953.5 kg/m3
17882 kPa	953.5 kg/m3
17887 kPa	953.4 kg/m3
17921 kPa	953.4 kg/m3
17949 kPa	953.5 kg/m3 and 953.6 kg/m3
17971 kPa	953.5 kg/m3
17978 kPa	953.5 kg/m3
17993 kPa	953.6 kg/m3
18012 kPa	953.5 kg/m3
18019 kPa	953.6 kg/m3
18040 kPa	953.4 kg/m3
18075 kPa	953.5 kg/m3
18104 kPa	953.5 kg/m3
18133 kPa	953.6 kg/m3
18161 kPa	953.6 kg/m3
18196 kPa	953.5 kg/m3
18200 kPa	953.7 kg/m3
18226 kPa	953.7 kg/m3
18227 kPa	953.7 kg/m3
18250 kPa	953.7 kg/m3
18255 kPa	953.7 kg/m3
18275 kPa	953.8 kg/m3
18290 kPa	953.7 kg/m3
18320 kPa	953.8 kg/m3
18350 kPa	953.7 kg/m3
18386 kPa	953.8 kg/m3
